{"source": "patent US6211439A", "about": "“Herbicide resistance in plants” (MGI Pharma, Inc, priority 1995, dated 2001)", "tested_on": "Black Mexican Sweet Corn tissue", "experiment": "Free amino acid levels in Black Mexican Sweet Corn suspension cultures", "assay_type": "cell-based, maize", "settings": "for activity at 10 µM / fold induction at 10 µM: Zea mays; for activity at 10 µM: After 48 hours of herbicide exposure; for fold induction at 10 µM: over a period of 48 hours, vs control cultures", "method": "Suspension culture cells were treated for 3.5 hours or 48 hours with 1×10^-5 M 997. Cells were removed from suspension by filtration and 1 gram fresh weight quantities were ground with sand with a mortar and pestle in 1 ml 5% TCA. Four ml of 5% TCA were added and the extract centrifuged at 10,000×g for 10 minutes. The pellet was reextracted and the supernatants combined and subjected to cation exchange chromatography. The samples were applied to Bond Elut SCX columns (Analytichem International Inc., Harbor City, Calif.) which had been equilibrated with 5% TCA. Following sample application, the columns were washed with 5 ml distilled, deionized water, and the amino acids were eluted with 2 ml aliquots of 5% v/v triethylamine. The aliquots were combined (6 ml), lyophilized, and subjected to amino acid analysis with a Kontron Liquemat III amino acid analyzer (Hesber, Middlesex TW5 OQU, England).", "key": {"[1]": {"settings": "1 × 10^-5 M 997, 3.5 hr., Estimated"}}, "note": "Like-named read-outs stand apart in the source and are kept apart here."}
{"smiles": "CC(C)C1(C)NC(c2ncccc2C(=O)O)=NC1=O", "note": "(stereo not drawn) [compound 997, 2-(5-isopropyl-5-methyl-4-oxo-2-imidazolin-2-yl)nicotinic acid]", "values": [{"measurement": "Free asp level", "setting": "1 × 10^-5 M 997, 3.5 hr.", "result": "175 nmol per g fresh weight tissue"}, {"measurement": "Free cystine (Oxidized cysteine) level", "setting": "1 × 10^-5 M 997, 3.5 hr.", "result": "103 nmol per g fresh weight tissue"}, {"measurement": "Free glu level", "setting": "1 × 10^-5 M 997, 3.5 hr.", "result": "360 nmol per g fresh weight tissue"}, {"measurement": "Free gly level", "setting": "1 × 10^-5 M 997, 3.5 hr.", "result": "98 nmol per g fresh weight tissue"}, {"measurement": "Free his level", "setting": "1 × 10^-5 M 997, 3.5 hr.", "result": "184 nmol per g fresh weight tissue"}, {"measurement": "Free ile level", "setting": "1 × 10^-5 M 997, 3.5 hr.", "result": "120 nmol per g fresh weight tissue"}, {"measurement": "Free leu level", "setting": "1 × 10^-5 M 997, 3.5 hr.", "result": "120 nmol per g fresh weight tissue"}, {"measurement": "Free lys level", "setting": "1 × 10^-5 M 997, 3.5 hr.", "result": "212 nmol per g fresh weight tissue"}, {"measurement": "Free met level", "setting": "1 × 10^-5 M 997, 3.5 hr.", "result": "100 nmol per g fresh weight tissue"}, {"measurement": "Free phe level", "setting": "1 × 10^-5 M 997, 3.5 hr.", "result": "151 nmol per g fresh weight tissue"}, {"measurement": "Free ser level", "setting": "1 × 10^-5 M 997, 3.5 hr.", "result": "540 nmol per g fresh weight tissue"}, {"measurement": "Free thr level", "setting": "1 × 10^-5 M 997, 3.5 hr.", "result": "89 nmol per g fresh weight tissue"}, {"measurement": "Free tyr level", "setting": "1 × 10^-5 M 997, 3.5 hr.", "result": "112 nmol per g fresh weight tissue"}, {"measurement": "Free val level", "setting": "1 × 10^-5 M 997, 3.5 hr.", "result": "355 nmol per g fresh weight tissue"}, {"measurement": "Free ala level", "setting": "[1]", "result": "600 nmol per g fresh weight tissue"}, {"measurement": "Free arg level", "setting": "[1]", "result": "60 nmol per g fresh weight tissue"}, {"measurement": "Free trp level", "setting": "[1]", "result": "30 nmol per g fresh weight tissue"}, {"measurement": "Free ala level", "setting": "1 × 10^-5 M 997, 48 hr.", "result": "455 nmol per g fresh weight tissue"}, {"measurement": "Free arg level", "setting": "1 × 10^-5 M 997, 48 hr.", "result": "55 nmol per g fresh weight tissue"}, {"measurement": "Free asp level", "setting": "1 × 10^-5 M 997, 48 hr.", "result": "100 nmol per g fresh weight tissue"}, {"measurement": "Free cystine (Oxidized cysteine) level", "setting": "1 × 10^-5 M 997, 48 hr.", "result": "435 nmol per g fresh weight tissue"}, {"measurement": "Free glu level", "setting": "1 × 10^-5 M 997, 48 hr.", "result": "175 nmol per g fresh weight tissue"}, {"measurement": "Free gly level", "setting": "1 × 10^-5 M 997, 48 hr.", "result": "60 nmol per g fresh weight tissue"}, {"measurement": "Free his level", "setting": "1 × 10^-5 M 997, 48 hr.", "result": "310 nmol per g fresh weight tissue"}, {"measurement": "Free ile level", "setting": "1 × 10^-5 M 997, 48 hr.", "result": "38 nmol per g fresh weight tissue"}, {"measurement": "Free leu level", "setting": "1 × 10^-5 M 997, 48 hr.", "result": "16 nmol per g fresh weight tissue"}, {"measurement": "Free lys level", "setting": "1 × 10^-5 M 997, 48 hr.", "result": "240 nmol per g fresh weight tissue"}, {"measurement": "Free met level", "setting": "1 × 10^-5 M 997, 48 hr.", "result": "405 nmol per g fresh weight tissue"}, {"measurement": "Free phe level", "setting": "1 × 10^-5 M 997, 48 hr.", "result": "195 nmol per g fresh weight tissue"}, {"measurement": "Free ser level", "setting": "1 × 10^-5 M 997, 48 hr.", "result": "1160 nmol per g fresh weight tissue"}, {"measurement": "Free trp level", "setting": "1 × 10^-5 M 997, 48 hr.", "result": "30 nmol per g fresh weight tissue"}, {"measurement": "Free tyr level", "setting": "1 × 10^-5 M 997, 48 hr.", "result": "130 nmol per g fresh weight tissue"}, {"measurement": "Free val level", "setting": "1 × 10^-5 M 997, 48 hr.", "result": "48 nmol per g fresh weight tissue"}, {"measurement": "activity at 10 µM", "setting": "read-out: free isoleucine level relative to untreated cell cultures", "result": 31, "unit": "%"}, {"measurement": "activity at 10 µM", "setting": "read-out: free leucine level relative to untreated cell cultures", "result": 8, "unit": "%"}, {"measurement": "activity at 10 µM", "setting": "read-out: free valine level relative to untreated cell cultures", "result": 12, "unit": "%"}, {"measurement": "fold induction at 10 µM", "setting": "read-out: increase of free cysteine during herbicide exposure", "result": 24}, {"measurement": "fold induction at 10 µM", "setting": "read-out: increase of free methionine during herbicide exposure", "result": 8}, {"measurement": "fold induction at 10 µM", "setting": "read-out: increase of free serine during herbicide exposure", "result": 3}]}
